Measured values: patent publication US8440464B2, “Method for evaluation or selection of adiponectin secretion regulator” (Kao Corporation, priority 2008, dated 2013)

System: plasma adiponectin level
Test: Plasma adiponectin level in REM sleep deprivation rat model (platform method), rat adiponectin ELISA
Type: in vivo
Details: SD rats, 30-hour REM sleep deprivation, oral 150 mg/kg thrice every 12 hours (300 mg/kg/day), vs. control group receiving distilled water, P<0.05 (Fisher's PLSD test)
Description: SD rats (male, 10 to 11 weeks old) were divided into groups, each containing rats with similar body weights. A cylindrical platform (diameter: 6.0 cm, height: 2.5 cm) on which a rat can take a rest was placed in a cage, and water was added to the cage so that the water level was adjusted to 1 cm below the top of the platform. Each rat was reared for one to four days in the cage (one rat/cage). Rats of a rest group were reared in cages each containing a common floorcloth (N=4 for each group). In a chlorogenic acid administration experiment, rats were reared in cages for 30-hour REM sleep deprivation. Rats of a chlorogenic acid (5-CQA, product of Sigma) administration group orally received chlorogenic acid thrice every 12 hours by means of a probe (dose: 150 mg/kg (300 mg/kg/day)). Rats of a control group received distilled water. Rats of a rest group were reared in cages each containing a common floorcloth, and received distilled water (N=6 for each group). […] The plasma adiponectin level was determined by means of a rat adiponectin ELISA kit (product of ADIPOGEN®). Specifically, plasma was 1,000-fold diluted with a dilution buffer contained in the kit, and then plasma adiponectin level was determined according to the kit protocol.

O=C(/C=C/c1ccc(O)c(O)c1)O[C@@H]1C[C@](O)(C(=O)O)C[C@@H](O)[C@H]1O [chlorogenic acid]
Effect on reduction in plasma adiponectin level caused by REM sleep deprivation: significantly suppressed a reduction in plasma adiponectin level
